Patent US12637473B2, “MDM2 protein degraders” (THE REGENTS OF THE UNIVERSITY OF MICHIGAN, priority 2016, dated 2026)
pIC50: −log10 of the molar value. Entries after “also recorded” stand apart in the source; their conditions may differ.

Legend:
Type in all cases: cell-based
MV4-11 cell line = test: CellTiter-Glo Luminescent Cell Viability Assay, cell growth inhibition; conditions: Homo sapiens, 96 h, 4 days
Procedure, shortened: (§1)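 Cells plated at 2,000/well with serially diluted compounds, incubated 4 days at 37° C, 5% CO2. Viability read by CellTiter-Glo luminescence after 10-20 min at room temperature; IC50 from dose-response fit.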

RS4; 11 cell line = test: as above; conditions: Homo sapiens, 96 h, 4 days
Procedure, shortened: as §1

[1] = system: RS4; 11 cells with stable shRNA knockdown of p53; test: Cell growth inhibition by WST assay, p53 knockdown cells; parameters: LogIC50: unit not given here; conditions: RS4;11 sh p53, 4 days; for pIC50: Homo sapiens, 96 h
Method: (§2) RS4; 11 cells with stable shRNA knockdown of p53 or those transfected shRNA control vector were treated with Cpd. A, Cpd. B, Cpd. No. 14, Cpd. No. 21, Cpd. No. 15, and Cpd. No. 22 for 4 days, with a cell concentration of ˜15,000/well. Cell growth inhibition was determined by WST assay. See Table 7 (p53) and Table 8 (control). Significant increases in IC50 of the Compounds of the Disclosure in the p53 knockdown RS4; 11 cells were observed compared with that in the sh control cells. […] The p53 knockdown efficiency was determined by western blot for p53 protein levels with or without treatment of Cpd. A (1 μM) for 2 hours.

[2] = system: RS4; 11 cells transfected shRNA control vector; test: Cell growth inhibition by WST assay, shRNA control cells; parameters: LogIC50: unit not given here; conditions: RS4;11 sh Control, 4 days; for pIC50: Homo sapiens, 96 h
Method: as §2

[3] = system: p53 target genes: p21, PUMA and BAX; test: Activation of p53 downstream target genes, quantitative real-time PCR; conditions: RS4, 11 cells; for activation of p53 downstream target genes (mRNA levels of p21, PUMA, BAX): 3, 6, or 12 hours
Method: RS4; 11 cells were treated with Cpd. A (0.3 μM), Cpd. No. 15 (10 nM), and Cpd. No. 22 (10 nM) for 3, 6, or 12 hours, and then harvested and washed. Cellular mRNA samples were extracted from the cells and then subjected to Reverse Transcription and quantitative real-time PCR for the analysis of the mRNA levels of three representative p53 target genes: p21, that induces cell cycle arrest, and PUMA and BAX that leads to apoptosis. […] A, Cpd. No. 15, and Cpd. No. 22.

RS4; 11 cells = test: Cell growth inhibition by WST assay with Cpd. C co-treatment (CRBN competition); parameters: LogIC50: unit not given here; conditions: for HillSlope / pIC50 / LogIC50: 4 days; for shift of the dose response curves: co-treatment of Cpd. C (10, 20, or 30 μM)
Method: RS4; 11 cells were pre-incubated with different concentrations of Cpd. C to compete for the binding of phthalimide to CRBN, or DMSO, for 2 hours before adding Cpd. A, Cpd. No. 14, Cpd. No. 15, and Cpd. No. 22. The cells were then co-treated with 10, 20, or 30 μM Cpd. C and increasing concentrations of Cpd. A, Cpd. No. 14, Cpd. No. 15, and Cpd. No. 22 for 4 days, with a starting cell concentration of ˜15,000/well. Cell growth inhibition was determined by the WST assay. […] No. 14, Cpd. No. 15, and Cpd. No. 22 with co-treatment of Cpd. C. The structure of Cpd.

MDM2 [4] = target: T1, MDM2 (Homo sapiens, UniProt Q00987); test: MDM2 degradation and p53 activation, western blotting of cell lysates; parameters: endogenous in cells
Method: MV-4-11 cells were treated with Cpd. A, Cpd. B, Cpd. No. 15, and Cpd. No. 22 for 2 hours, then harvested and lysed. The cell lysates were subjected to western blotting analysis. […] No. 15 and Cpd. No. 22 as compared to Cpd. A, indicating MDM2 degradation.

MDM2 [5] = target: T1, MDM2; test: as above; parameters: endogenous in cells; host or cells: RS4;11; conditions: RS4
Method: RS4; 11 cells were treated with Cpd. A, Cpd. B, Cpd. No. 15, and Cpd. No. 22 for 2 hours, then harvested and lysed. The cell lysates were subjected to western blotting analysis. […] No. 15 and Cpd. No. 22 as compared to Cpd. A, indicating MDM2 degradation. The structure of Cpd.

MDM2 [6] = target: T1, MDM2; test: MDM2 degradation with or without proteasome inhibitor MG-132, western blotting; parameters: endogenous in cells; host or cells: RS4;11; conditions: FIG. 6
Method: RS4; 11 cells were pre-incubated with the proteasome inhibitor MG-132 (20 μM) or without any pre-incubation for 2 hours. Next, the cells were treated with Cpd. A (0.3 μM), Cpd. No. 14 (0.03 μM), Cpd. No. 15 (0.01 μM), and Cpd. No. 22 (0.01 μM) for 2 hours, then harvested and lysed. The cell lysates were subject to western blotting analysis.

MDM2 [7] = target: T1, MDM2; test: MDM2 degradation and p53 activation after pre-incubation with Cpd. C, Western blot; parameters: endogenous in cells; host or cells: RS4;11; conditions: for MDM2 degradation, dependence on cereblon (CRBN): FIG. 7; for MDM2 degradation, competition by Cpd. C / p53 activation, competition by Cpd. C: RS4, 11 cells, pre-incubated with 30 μM Cpd. C for 2 hours
Method: RS4; 11 cells were pre-incubated with 30 μM Cpd. C to compete for the binding of phthalimide to CRBN, or DMSO, for 2 hours before adding Cpd. A, Cpd. No. 14, Cpd. No. 15, and Cpd. No. 22. In the Western blot RS4; 11 cells were then co-treated with the indicated compounds at the indicated concentrations after pre-incubation. […] No. 14, Cpd. No. 15, and Cpd.

[8] = Homo sapiens, 96 h, without Cpd. C

T1 sequence (Q00987 whole entry): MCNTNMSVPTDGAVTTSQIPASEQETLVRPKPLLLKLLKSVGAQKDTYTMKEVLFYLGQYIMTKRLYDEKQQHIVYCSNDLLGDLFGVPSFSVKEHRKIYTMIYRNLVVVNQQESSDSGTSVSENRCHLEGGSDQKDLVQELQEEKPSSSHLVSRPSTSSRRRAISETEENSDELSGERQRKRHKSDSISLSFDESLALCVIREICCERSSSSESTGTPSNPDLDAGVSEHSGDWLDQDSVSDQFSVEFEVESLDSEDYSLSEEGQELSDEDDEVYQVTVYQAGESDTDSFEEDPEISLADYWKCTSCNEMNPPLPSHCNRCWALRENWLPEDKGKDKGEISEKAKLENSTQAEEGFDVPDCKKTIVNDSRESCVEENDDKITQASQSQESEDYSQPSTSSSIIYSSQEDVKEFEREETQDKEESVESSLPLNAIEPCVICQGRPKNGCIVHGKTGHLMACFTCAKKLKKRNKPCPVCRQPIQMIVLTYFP

pIC50 (MV4-11 cell line) | pIC50 (RS4; 11 cell line) | pIC50 [1] | pIC50 [2] | pIC50 (RS4; 11 cells; + 10 uM Cpd. C) | pIC50 (RS4; 11 cells; + 20 uM Cpd. C) | pIC50 (RS4; 11 cells; + 30 uM Cpd. C) | pIC50 (RS4; 11 cells; [8]) | Structure (SMILES) | HiliSlope [1] | LogIC50 [1] | HiliSlope [2] | LogIC50 [2] | HillSlope (RS4; 11 cells; + 10 uM Cpd. C) | LogIC50 (RS4; 11 cells; + 10 uM Cpd. C) | HillSlope (RS4; 11 cells; + 20 uM Cpd. C) | LogIC50 (RS4; 11 cells; + 20 uM Cpd. C) | HillSlope (RS4; 11 cells; + 30 uM Cpd. C) | LogIC50 (RS4; 11 cells; + 30 uM Cpd. C) | HillSlope (RS4; 11 cells; without Cpd. C) | LogIC50 (RS4; 11 cells; without Cpd. C) | other results
8.70 | 8.36 | 5.38 | 7.88 | – | – | – | – | O=C1CCC(N2Cc3c(NCCOCCOCCNC(=O)c4ccc(NC(=O)[C@@H]5NC6(CCCCC6)[C@@]6(C(=O)Nc7cc(Cl)ccc76)[C@H]5c5cccc(Cl)c5F)cc4)cccc3C2=O)C(=O)N1 (stereo partly drawn) [Cpd. No. 21, (3′R,4'S,5′R)-6″-chloro-4′-(3-chloro-2-fluorophenyl)-N-(4-((2-(2-(2-((2-(2,6-dioxopiperidin-3-yl)-1-oxoisoindolin-4-yl)amino)ethoxy)ethoxy)ethyl)carbamoyl)phenyl)-2″-oxodispiro[cyclohexane-1,2′-pyrrolidine-3′,3″-indoline]-5′-carboxamide] | −0.4410 | 0.6196 | −1.448 | −1.882 | – | – | – | – | – | – | – | – | –
8.70 | 8.36 | 6.96 | 8.13 | 7.36 | 7.17 | 7.21 | 8.31 | O=C1CCC(N2C(=O)c3cccc(NCCOCCOCCOCCNC(=O)c4ccc(NC(=O)[C@@H]5NC6(CCCCC6)[C@@]6(C(=O)Nc7cc(Cl)ccc76)[C@H]5c5cccc(Cl)c5F)cc4)c3C2=O)C(=O)N1 (stereo partly drawn) [Cpd. No. 15, (3′R,4'S,5′R)-6″-chloro-4′-(3-chloro-2-fluorophenyl)-N-(4-((2-(2-(2-(2-((2-(2,6-dioxopiperidin-3-yl)-1,3-dioxoisoindolin-4-yl)amino)ethoxy)ethoxy)ethoxy)ethyl)carbamoyl)phenyl)-2″-oxodispiro[cyclohexane-1,2′-pyrrolidine-3′,3″-indoline]-5′-carboxamide] | −0.8905 | −0.9565 | −1.626 | −2.127 | −1.654 | −1.356 | −1.540 | −1.167 | −1.416 | −1.205 | −1.839 | −2.312 | mRNA levels of p21 ([3]; FIG. 3, 10 nM): activate; mRNA levels of PUMA ([3]; FIG. 4, 10 nM): activate; mRNA levels of BAX ([3]; FIG. 5, 10 nM): activate; activation of p53 downstream target genes (mRNA levels of p21, PUMA, BAX) ([3]; 10 nM): Significant activation; shift of the dose response curves (RS4; 11 cells): Significant rightward shifts; p53 activation (MDM2 [4]; MV-4-11 cell line): p53 activation; protein level of MDM2 (MDM2 degradation) (MDM2 [4]; MV-4-11 cells, 2 hours, compared to Cpd. A): induce MDM2 degradation; also recorded: significantly decreased; p53 activation (MDM2 [5]; 11 cell line): p53 activation; protein level of MDM2 (MDM2 degradation) (MDM2 [5]; 11 cells, 2 hours, compared to Cpd. A): induce MDM2 degradation; also recorded: significantly decreased; MDM2 degradation, dependence on proteasome (MDM2 [6]): proteasome-dependent; MDM2 degradation, dependence on cereblon (CRBN) (MDM2 [7]): cereblon (CRBN)-dependent; MDM2 degradation, competition by Cpd. C (MDM2 [7]): significantly competed by Cpd. C; p53 activation, competition by Cpd. C (MDM2 [7]): significantly competed by Cpd. C
7.00 | 7.07 | 5.01 | 7.01 | 7.32 | 7.41 | 7.44 | 7.03 | O=C(O)c1ccc(NC(=O)[C@@H]2NC3(CCCCC3)[C@@]3(C(=O)Nc4cc(Cl)ccc43)[C@H]2c2cccc(Cl)c2F)cc1 [Cpd. A, reference compound] | −0.4240 | 0.9926 | −1.155 | −1.011 | −1.569 | −1.317 | −1.406 | −1.409 | −1.411 | −1.438 | −1.496 | −1.030 | activation of p53 downstream target genes (mRNA levels of p21, PUMA, BAX) ([3]; 0.3 μM): Significant activation
8.12 | 8.07 | 6.30 | 8.01 | 7.24 | 7.09 | 7.11 | 8.15 | O=C1CCC(N2C(=O)c3cccc(NCCOCCOCCNC(=O)c4ccc(NC(=O)[C@@H]5NC6(CCCCC6)[C@@]6(C(=O)Nc7cc(Cl)ccc76)[C@H]5c5cccc(Cl)c5F)cc4)c3C2=O)C(=O)N1 (stereo partly drawn) [Cpd. No. 14, (3′R,4'S,5′R)-6″-chloro-4′-(3-chloro-2-fluorophenyl)-N-(4-((2-(2-(2-((2-(2,6-dioxopiperidin-3-yl)-1,3-dioxoisoindolin-4-yl)amino)ethoxy)ethoxy)ethyl)carbamoyl)phenyl)-2″-oxodispiro[cyclohexane-1,2′-pyrrolidine-3′,3″-indoline]-5′-carboxamide] | −0.4731 | −0.3000 | −1.475 | −2.014 | −1.705 | −1.244 | −1.667 | −1.091 | −1.600 | −1.111 | −1.996 | −2.147 | shift of the dose response curves (RS4; 11 cells): Significant rightward shifts; MDM2 degradation, dependence on proteasome (MDM2 [6]): proteasome-dependent; MDM2 degradation, dependence on cereblon (CRBN) (MDM2 [7]): cereblon (CRBN)-dependent; MDM2 degradation, competition by Cpd. C (MDM2 [7]): significantly competed by Cpd. C; p53 activation, competition by Cpd. C (MDM2 [7]): significantly competed by Cpd. C
– | – | 5.25 | 7.07 | – | – | – | – | COCCONC(=O)c1ccc(NC(=O)[C@@H]2NC3(CCCCC3)[C@@]3(C(=O)Nc4cc(Cl)ccc43)[C@H]2c2cccc(Cl)c2F)cc1 [Cpd. B, reference compound] | −0.7973 | 0.7537 | −0.9620 | −1.069 | – | – | – | – | – | – | – | – | –
